Entries after “also recorded” stand apart in the source; their conditions may differ.
What was measured:
[1] = tested on: WT MEFs and presenilin-mutant (PS-DKO) cells; experiment: Filipin staining of free cholesterol; assay type: cell-based, mouse; settings: WT MEFs treated with DAPT, then BACE1 inhibitor
Procedure: Cells were washed in PBS and fixed in 3% paraformaldehyde at room temperature for 1 h. After washing in PBS three times, samples were incubated in 1.5 mg/ml glycine in 1×PBS to quench the paraformaldehyde and then incubated in 0.05 mg/ml of filipin in PBS/10% FBS for 2 h at room temperature. Free cholesterol signal was visualized in by microscopy and quantified by ImageJ.

WT and PS-DKO cells = experiment: Mitochondrial content and biogenesis (VDAC, TOM20 western blot; PGC-1α qRT-PCR); assay type: cell-based, mouse
Procedure: Total RNA was extracted from MEFs using TRIzol® Reagent (Invitrogen 15596-018) according to the manufacture's instructions, and was quantified by NanoDrop2000 (Thermo Scientific). […] of total RNA was used to obtain cDNA by RT-PCR using a High Capacity cDNA Reverse Transcription Kit (Applied Biosystems; PN 4368813, 4374966). Real-Time PCR was performed in triplicate in a StepOnePlus™ Real-Time PCR System (Applied Biosystems; 4376600). The expression of each gene under study was analyzed using specific predesigned TaqMan Probes (PGC-1α, ppargc1 Mm01208835_m1; aSMase, smpd1 Mm00488319_g1; nSMase, smpd3 Mm00491359_m1). The expression of each gene under study was analyzed using specific predesigned TaqMan Probes and normalizing against Gapdh expression (Applied Biosystems, 4352339E) as an internal standard.
Total RNA was extracted from MEFs using TRIzol® Reagent (Invitrogen 15596-018) according to the manufacture's instructions, and was quantified by NanoDrop2000 (Thermo Scientific). […] The expression of each gene under study was analyzed using specific predesigned TaqMan Probes (PGC-1α, ppargcl Mm01208835_ml; aSMase, smpd1 Mm00488319_g1; nSMase, smpd3 Mm00491359_ml). The forward and reverse primers for COXI quantification were, respectively, ([…] (SEQ ID NO: 5); […] (SEQ ID NO: 6)). […]

[2] = tested on: mitochondrial respiratory supercomplexes; experiment: Supercomplex analysis (blue-native gels, in-gel activity and western blot); assay type: cell-based, mouse
Procedure: Analysis and quantification of mitochondrial respiratory complexes by western blot and enzymatic in-gel activity were carried out as previously reported (Acin-Perez et al., 2008)
Analysis and quantification of mitochondrial respiratory complexes by Western blot and enzymatic in-gel activity were carried out as described (Acin-Perez et al, 2008).

SH-SY5Y cells = experiment: Mitochondrial content and biogenesis (VDAC western blot; qRT-PCR); assay type: cell-based, human

SMILES | distribution of free cholesterol (filipin staining punctae) [1] | mitochondrial content / biogenesis (VDAC, TOM20, PGC-1α mRNA) (WT and PS-DKO cells) | activity of supercomplexes I+III+IV, I+III and III+IV (in-gel complex I and IV activity) ([2]; mitochondria from PS-DKO cells incubated with BI or myriocin) | assembly of respiratory supercomplexes (blue-native PAGE western blot) ([2]; mitochondria from PS-DKO cells, anti-complex I and III antibodies) | mitochondrial content or biogenesis (SH-SY5Y cells) | activity of supercomplexes I+III+IV, I+III and III+IV ([2]; mitochondria from DAPT-treated WT cells)
C[C@@H](NC(=O)c1cc(C(=O)N[C@@H](Cc2ccccc2)[C@H](O)CNC2CC2)cc(N(C)S(C)(=O)=O)c1)c1ccccc1 [BI, β-secretase inhibitor IV] | reverse it | without changes in mitochondria; also recorded: do not affect mitochondrial biogenesis | rescued | increases the assembly of supercomplexes I+III and I+III+IV | – | –
C[C@H](NC(=O)Cc1cc(F)cc(F)c1)C(=O)N[C@H](C(=O)OC(C)(C)C)c1ccccc1 [DAPT] | this phenotype was recapitulated | do not affect mitochondrial biogenesis | – | – | without altering mitochondrial content or biogenesis | decrease in the activity of supercomplexes

From patent publication US11266626B2, “Reduction of ER-MAM-localized APP-C99 and methods of treating alzheimer's disease” (THE TRUSTEES OF COLUMBIA UNIVERSITY IN THE CITY OF NEW YORK, priority 2015, dated 2022)
